From patent US8207143B2, “Methods of treating cancer and other conditions or disease states using LFMAU and LDT” (Yale University, priority 2005, dated 2012)

Key:
colon 38 = assay: Experiment 8: LDT and LFMAU enhancement of oxaliplatin on colon 38 growth in C57BL6 female mice; type: in vivo, mouse
Method: This tumor is passed from a solid tumor growing in mice. Several grams (assuming a gram per ml) are pressed through a sterile screen and suspended in a tissue culture media without phenol red or fetal calf serum (a balanced salt solution) at 2 ml/gram of tumor. Then 0.1 ml of this tumor suspension is implanted into the flank of the mouse. Ten days to two weeks after implantation (when the tumors could be measured with a caliper), unless otherwise indicated, the drug therapy was initiated. In general, drugs are delivered at a rate of 0.1 ml per 10 grams of body weight. Every day the mice are weighed to deter the amount to be injected and as a index of toxicity. The Tumor Volume is calculated from the measurements by the formula: length (mm)×width (mm)×width (mm)×II/6 (as a % of Day 1). Experiment 8 tested the effects of LDT (L-dT) and LFMAU (15 mg/kg of each, same schedule as above) on the enhancement of anti-cancer drug effect (oxaliplatin 10 mg/kg i.p., once on day 1) on colon 38 growth in C57BL6 female mice.

HepG2 = assay: Experiment 9: LDT enhancement of oxaliplatin on HepG2 in NCR Nu/Nu male mice; type: in vivo, human
Method: This is a human hepatocarcinoma that is grown in tissue culture as a monolayer in MEM with 10% FBS. Several flasks of cells are grown, then harvested with pancreatin and resuspended in a balanced salt solution at 10^8 per ml the 0.1 ml of this suspension is implanted into the flank of a NCR nude mouse (T cell deficient to grow human tissues). Then approximately 10 days later, when the tumor was measurable, the drug treatment started. In general, drugs are delivered at a rate of 0.1 ml per 10 grams of body weight. Every day the mice are weighed to deter the amount to be injected and as a index of toxicity. The Tumor Volume is calculated from the measurements by the formula: length (mm)×width (mm)×width (mm)×II/6 (as a % of Day 1). Experiment 9 tested the effects of LDT (15 mg/kg, same schedule as above) on the enhancement of anti-cancer drug effect (oxaliplatin 10 mg/kg i.p., once on day 1) on HepG2in immunodeficient NCR Nu/Nu male mice.

colon 38 mouse tumor = assay: Experiment 7: LDT and LFMAU alone and with 5-Fluorouracil/leucovorin on colon 38 in immuno-competent mice; type: in vivo; details: LDT 100 mg/kg
Method: This tumor is passed from a solid tumor growing in mice. Several grams (assuming a gram per ml) are pressed through a sterile screen and suspended in a tissue culture media without phenol red or fetal calf serum (a balanced salt solution) at 2 ml/gram of tumor. Then 0.1 ml of this tumor suspension is implanted into the flank of the mouse. Ten days to two weeks after implantation (when the tumors could be measured with a caliper), unless otherwise indicated, the drug therapy was initiated.
In general, drugs are delivered at a rate of 0.1 ml per 10 grams of body weight. Every day the mice are weighed to deter the amount to be injected and as a index of toxicity.
The Tumor Volume is calculated from the measurements by the formula: length (mm)×width (mm)×width (mm)×II/6 (as a % of Day 1).
This experiment was designed to determine the effect of LDT and LFMAU alone and in combination with 5-Fluorouracil with leucovorin rescue on the growth of mouse tumor (colon 38) in immuno-competent mice. The drugs were administered to the mice according to the following schedule:
5FU/LV—150 mg/kg each i.p. once on day one
LDT—100 mg/kg p.o. b.i.d. for 5 days
LFMAU—50 mg/kg p.o. bid for 5 days
Combination groups received both treatments as per above schedules.

B16 melanoma = assay: Experiment 6: B16 melanoma injected subcutaneously into C57 BL6 mice; type: in vivo, mouse; details: B16 melanoma s.c. in C57 BL6 mice; LFMAU 50 mg/kg B.I.D., 5 days pretreatment then ten days; Controls 831±474.5
Method: These experiments includes B16 melanoma which was injected subcutaneously into C57 BL6 mice which were pretreated for 5 days with LFMAU (B.I.D.) and then subsequently for ten days with LFMAU (BID.) at 50 mg/kg. with no other anti-cancer compound. This experiment yielded tumor size S.D. for the Controls of 831±474.5 and for the LFMAU treated mice of 160±150.3.

[1] = immunocompetent mice, LFMAU 50 mg/kg p.o. b.i.d. for 5 days

Structure (SMILES)	enhancement of anti-tumor effect of Oxaliplatin on colon 38 (FIG. 8) (colon 38; 15 mg/kg of each nucleoside, oxaliplatin 10 mg/kg i.p. once on day 1)	duration of the effect after treatment (FIG. 8) (colon 38; 15 mg/kg with oxaliplatin 10 mg/kg i.p.)	effect on HepG2 tumor, alone or in combination (FIG. 9) (HepG2; LDT 15 mg/kg)	duration of the effect after treatment (FIG. 9) (HepG2; LDT 15 mg/kg with oxaliplatin)	enhancement of anti-tumor effect of Oxaliplatin on HepG2 (FIG. 9) (HepG2; LDT 15 mg/kg, oxaliplatin 10 mg/kg i.p. once on day 1)	duration of the effect after therapy (FIG. 7) (colon 38 mouse tumor; [1])	effect on growth of colon 38 mouse tumor, alone (FIG. 7) (colon 38 mouse tumor; [1])	effect on the anti-cancer activity of 5-FU/LV (FIG. 7) (colon 38 mouse tumor; with 5FU/LV 150 mg/kg each i.p. once on day one, LFMAU 50 mg/kg p.o. b.i.d. 5 days)	tumor size S.D. (B16 melanoma)
Cc1cn([C@@H]2C[C@@H](O)[C@H](CO)O2)c(=O)[nH]c1=O [LDT, β-L-2′-deoxyribofuranosylthymidine]	clearly enhanced the anti-tumor effect of Oxaliplatin	lasts well after the nucleoside treatment is stopped	effective alone or in combination with oxaliplatin	lasts after the nucleoside treatment is stopped	clearly enhanced the anti-tumor effect of Oxaliplatin	lasted well past the 5 day therapy	slows down the growth	significant (additive or synergistic)	
Cc1cn([C@H]2O[C@@H](CO)[C@H](O)[C@H]2F)c(=O)[nH]c1=O [LFMAU, 2′-fluoro-5-methyl-β-L-arabinofuranosyluridine]									160±150.3
